In US4399132A, “7-Beta-[alpha-syn-methoxyimino-alpha-(2-aminothiazol-4-yl)-aceta mido]-3-[(1,2,3-thiadiazol-5-ylthio)methyl]-3-cephem-4-carboxylic acid and C1 -C6 alkyl derivatives thereof” (American Cyanamid Company, priority 1981, dated 1983):
Converted amounts (≈) assume the structure as drawn. Where two headings read alike, the source gives them in different places.

Legend:
[1] = system: Acinetobacter sp.; experiment: Mueller-Hinton agar dilution method (MIC); type: cell-based; settings: read-out: Minimal Inhibitory Concentration
[2] = system: Klebsiella pneumoniae; experiment: Mueller-Hinton agar dilution method (MIC); type: cell-based; settings: Table I
[3] = system: Citrobacter sp.; experiment: Mueller-Hinton agar dilution method (MIC); type: cell-based; settings: strain K-81-27, Table I, read-out: Minimal Inhibitory Concentration
[4] = system: Providencia stuartti; experiment: Mueller-Hinton agar dilution method (MIC); type: cell-based; settings: strain K-81-29, Table I, read-out: Minimal Inhibitory Concentration
[5] = system: Proteus rettgeri; experiment: Mueller-Hinton agar dilution method (MIC); type: cell-based; settings: Providencia rettgeri; strain N-76-1; Table I; read-out: Minimal Inhibitory Concentration
[6] = system: Staphylococcus aureus; experiment: Mueller-Hinton agar dilution method (MIC); type: cell-based; settings: read-out: Minimal Inhibitory Concentration
[7] = system: Salmonella (arizona); experiment: Mueller-Hinton agar dilution method (MIC); type: cell-based; settings: strain QHC-77-3, Table I, read-out: Minimal Inhibitory Concentration
[8] = system: Pseudomonas aeruginosa; experiment: Mueller-Hinton agar dilution method (MIC); type: cell-based; settings: read-out: Minimal Inhibitory Concentration
[9] = system: Serratia marcescens; experiment: Mueller-Hinton agar dilution method (MIC); type: cell-based; settings: read-out: Minimal Inhibitory Concentration
[10] = system: Klebsiella oxytoca; experiment: Mueller-Hinton agar dilution method (MIC); type: cell-based; settings: strain K-81-6, Table I, read-out: Minimal Inhibitory Concentration
[11] = system: Enterobacter aerogenes; experiment: Mueller-Hinton agar dilution method (MIC); type: cell-based; settings: Klebsiella aerogenes; strain STFD-79-14; Table I; read-out: Minimal Inhibitory Concentration
[12] = system: Proteus morganii; experiment: Mueller-Hinton agar dilution method (MIC); type: cell-based; settings: Morganella morganii, Table I, read-out: Minimal Inhibitory Concentration
[13] = system: Enterococcus sp.; experiment: Mueller-Hinton agar dilution method (MIC); type: cell-based; settings: Table I
[14] = system: Escherichia coli; experiment: Mueller-Hinton agar dilution method (MIC); type: cell-based; settings: read-out: Minimal Inhibitory Concentration
[15] = system: Enterobacter cloacae; experiment: Mueller-Hinton agar dilution method (MIC); type: cell-based; settings: read-out: Minimal Inhibitory Concentration
[16] = system: Salmonella sp.; experiment: Mueller-Hinton agar dilution method (MIC); type: cell-based; settings: strain SSC-79-57, Table I, read-out: Minimal Inhibitory Concentration
Text: The results appear in Tables I, II, and III.

[17] = system: Staphylococcus aureus; experiment: control of systemic lethal infections in mice; type: in vivo, mice (Charles River Laboratories CD-1 strain female); settings: sc, 168 h, survival at 7 days, three tests pooled, read-out: Median Effective Dose (ED50)
Procedure: (§1) The test employed used Charles River Laboratories CD-1 strain female mice each weighing 20+2 grams. The mice were infected by intraperitoneal injection of sufficient bacteria (see Table 2), contained in either 0.5 ml. of 5% mucin (S. aureus strains) or broth (S. pyogenes or E. coli), to kill 95-100% of untreated mice within 48 hours.
(§2) The mice were treated by subcutaneous injection 30 minutes after infection with the test drug at varying doses contained in 0.5 ml. of 0.2% aqueous agar. Survival ratios seven days after infection were recorded.

[18] = system: Staphylococcus pyogenes; experiment: control of systemic lethal infections in mice; type: in vivo, mice (Charles River Laboratories CD-1 strain female); settings: Staphylococcus aureus, sc, 168 h; strain C 203; subcutaneous 30 min after i.p. infection; survival at 7 days; three tests pooled; 95% confidence limits (0.08-0.13); read-out: Median Effective Dose (ED50)
Procedure: as §1, §2

[19] = system: Escherichia coli; experiment: control of systemic lethal infections in mice; type: in vivo, mice (Charles River Laboratories CD-1 strain female); settings: sc, 168 h, strain 311, subcutaneous 30 min after i.p. infection, survival at 7 days, three tests pooled, 95% confidence limits (0.28-0.44), read-out: Median Effective Dose (ED50)
Procedure: as §1, §2

SMILES: CO/N=C(\C(=O)N[C@@H]1C(=O)N2C(C(=O)O)=C(CSc3cnns3)CS[C@H]12)c1csc(N)n1 [Compound Ia, 7 beta-[alpha-syn-methoxyimino-alpha-(2-aminothiazol-4-yl)acetamido]-3-[(1,2,3-thiadiazol-5-ylthio)methyl]-3-cephem-4-carboxylic acid]
- MIC ([1]; strain K-77-1, Table I): 4 µg/mL (≈ 7.79 µM)
- MIC ([1]; strain K-77-6, Table I): 16 µg/mL (≈ 31.2 µM)
- MIC ([1]; strain STFD-79-17, Table I): 16 µg/mL (≈ 31.2 µM)
- MIC ([2]; Klebsiella pneumoniae, strain STFD-79-16, read-out: Minimal Inhibitory Concentration): 0.015 µg/mL (≈ 0.0292 µM)
- Minimal Inhibitory Concentration ([2]; strain SSC-78-1): .015 µg/mL
- MIC [3]: 0.03 µg/mL (≈ 0.0584 µM)
- MIC [4]: 0.06 µg/mL (≈ 0.117 µM)
- MIC [5]: 0.015 µg/mL (≈ 0.0292 µM)
- MIC ([6]; beta-lactamase negative, strain SSC 79-3, Table II): 0.12 µg/mL (≈ 0.234 µM)
- MIC ([6]; beta-lactamase negative, strain SSC 79-5, Table II): 0.5 µg/mL (≈ 0.974 µM)
- MIC ([6]; beta-lactamase negative, strain SSC 79-7, Table II): 0.12 µg/mL (≈ 0.234 µM)
- MIC ([6]; beta-lactamase negative, strain SSC 79-9, Table II): 0.12 µg/mL (≈ 0.234 µM)
- MIC ([6]; beta-lactamase negative, strain SSC 79-10, Table II): 0.12 µg/mL (≈ 0.234 µM)
- MIC ([6]; beta-lactamase negative, strain SSC 79-11, Table II): 0.12 µg/mL (≈ 0.234 µM)
- MIC ([6]; beta-lactamase negative, strain SSC 79-14, Table II): 0.5 µg/mL (≈ 0.974 µM)
- MIC ([6]; beta-lactamase negative, strain SSC 79-15, Table II): 0.5 µg/mL (≈ 0.974 µM)
- MIC ([6]; beta-lactamase negative, strain SSC 79-17, Table II): 0.25 µg/mL (≈ 0.487 µM)
- MIC ([6]; beta-lactamase positive, strain SSC 79-24, Table II): 4 µg/mL (≈ 7.79 µM)
- MIC ([6]; beta-lactamase positive, strain SSC 79-27, Table II): 0.25 µg/mL (≈ 0.487 µM)
- MIC ([6]; beta-lactamase positive, strain SSC 79-28, Table II): 0.25 µg/mL (≈ 0.487 µM)
- MIC ([6]; beta-lactamase positive, strain SSC 79-36, Table II): 0.25 µg/mL (≈ 0.487 µM)
- MIC ([6]; beta-lactamase positive, strain SSC 79-38, Table II): 0.25 µg/mL (≈ 0.487 µM)
- MIC ([6]; beta-lactamase positive, strain SSC 79-39, Table II): 0.25 µg/mL (≈ 0.487 µM)
- MIC ([6]; beta-lactamase positive, strain SSC 79-41, Table II): 0.5 µg/mL (≈ 0.974 µM)
- MIC ([6]; beta-lactamase positive, strain SSC 79-44, Table II): 0.12 µg/mL (≈ 0.234 µM)
- MIC ([6]; beta-lactamase positive, strain SSC 79-47, Table II): 0.25 µg/mL (≈ 0.487 µM)
- MIC ([6]; strain FU-79-19-2, Table I): 0.5 µg/mL (≈ 0.974 µM)
- MIC ([6]; strain SSC-79-18, Table I): 0.25 µg/mL (≈ 0.487 µM)
- MIC ([6]; strain SSC-80-15, Table I): 0.5 µg/mL (≈ 0.974 µM)
- MIC ([6]; strain Smith, Table I): 0.25 µg/mL (≈ 0.487 µM)
- MIC [7]: 0.03 µg/mL (≈ 0.0584 µM)
- MIC ([8]; strain 12-4-4, Table I): 32 µg/mL (≈ 62.3 µM)
- MIC ([8]; strain SSC-78-13, Table I): 64 µg/mL (≈ 125 µM)
- MIC ([8]; strain TUL-78-2, Table I): 128 µg/mL (≈ 249 µM)
- MIC ([9]; strain K-81-39, Table I): 0.12 µg/mL (≈ 0.234 µM)
- MIC ([9]; strain QHC-77-2, Table I): 1 µg/mL (≈ 1.95 µM)
- MIC ([9]; strain TUL-78-15, Table I): 1 µg/mL (≈ 1.95 µM)
- MIC [10]: 0.03 µg/mL (≈ 0.0584 µM)
- MIC [11]: 0.03 µg/mL (≈ 0.0584 µM)
- MIC ([12]; strain K-77-3): 4 µg/mL (≈ 7.79 µM)
- MIC ([12]; strain K-79-25): 0.015 µg/mL (≈ 0.0292 µM)
- MIC ([13]; Enterococcus, strain OSU-75-1, read-out: Minimal Inhibitory Concentration): 32 µg/mL (≈ 62.3 µM)
- Minimal Inhibitory Concentration ([13]; strain SM-77-15): 32 µg/mL
- MIC ([14]; strain #311, Table I): 0.03 µg/mL (≈ 0.0584 µM)
- MIC ([14]; strain K-81-14, Table I): 0.06 µg/mL (≈ 0.117 µM)
- MIC ([14]; strain STFD-79-20, Table I): 0.015 µg/mL (≈ 0.0292 µM)
- MIC ([15]; strain K-79-16, Table I): 0.25 µg/mL (≈ 0.487 µM)
- MIC ([15]; strain K-81-46, Table I): 0.12 µg/mL (≈ 0.234 µM)
- MIC [16]: 0.25 µg/mL (≈ 0.487 µM)
- ED50 ([17]; strain Fu-79-2, subcutaneous 30 min after i.p. infection, 95% confidence limits (4.4-8.4)): 6.1 mg/kg
- ED50 ([17]; strain Smith, subcutaneous 30 min after i.p. infection, 95% confidence limits (2.4-3.6)): 2.9 mg/kg
- ED50 [18]: 0.1 mg/kg
- ED50 [19]: 0.35 mg/kg
